Laboratory results: US20220160751A1, “METHODS OF TREATMENT OF DISEASES AND DISORDERS ASSOCIATED WITH INCREASED TET LEVEL, INCREASED H19 LEVEL, INCREASED LEVEL OF TGF SIGNALING, OR ANY COMBINATION THEREOF” (YALE UNIVERSITY, priority 2019, published 2022)

Columns and labels:
[1] = test system: MED12, TGFBR2 and TSP1 promoters; test: ChIP-qPCR, methylation profiling and QMSP in leiomyoma cells; format: cell-based, human; conditions: vs siCon
Method: gDNA was extracted from primary leiomyoma cells from one well of 24-well plates using Quick-gDNA MicroPrep (Zymo Research Corporation, Irvine, Calif.; D3021) according to the manufacturer's instructions. For bisulfite treatment, 200 ng of gDNA was used for each column using EZ DNA Methylation-Gold Kit (Zymo, D5006). 100 μl of elution buffer was used to elute gDNA from each column. Real-time quantitative PCR was performed in a 15 μl reaction containing 5 μl of the eluted gDNA using iQSYBRGreen (Bio-Rad, Hercules, Calif.; 1708880) in a Bio-Rad iCycler. Two sets of PCR primers were designed: one for unmethylated and one for methylated DNA sequences. The PCR primers for methylated DNA were used at a final concentration of 0.6 μM in each PCR reaction. PCR was performed by initial denaturation at 95° C. for 5 min, followed by 40 cycles of 30 sec at 95° C., 30 sec at 60° C., and 30 sec at 72° C. Specificity was verified by melting curve analysis and agarose gel electrophoresis. The threshold cycle (Ct) values of each sample were used in the post-PCR data analysis. The relative levels of methylated versus unmethylated DNA sequences are presented.
These experiments were performed as previously described (Zhou J et al., 2015, Nat Commun 6:10221) with minor modifications. Briefly, experiments were performed in a 10-cm plate scale using the Pierce Agarose ChIP Kit (Thermo Scientific, 26156) according to the manufacturer's instructions with minor modifications. Agarose beads were used to pre-bind overnight with antibodies against TET3 (Millipore Sigma, ABE290), H3K4me3 (Cell signaling, C42D8) and H3K27me3 (Cell signaling, C36B11). Preimmune IgG was used as a negative control. Cells were cross-linked with 1% formaldehyde at room temperature for 10 min, and the reaction was stopped by 1× glycine. ChIPs were carried out overnight at 4° C. Primers for the specific promoter regions of MED12, TGFBR2, and TSP1 (FIG. 16A) were used to amplify input and ChIP-purified DNA. The relative enrichments of the indicated DNA regions were calculated using the Percent Input Method according to the manufacturer's instructions and were normalized to % input. Data are presented after normalization against background IgG signals.

[2] = test system: TGFB1, TSP1 and TGFBR2 promoters; test: ChIP-qPCR and QMSP in LX-2 cells; format: cell-based, human; conditions: 48 h, vs siCon
Method: The assays were carried out as previously described in (Zhou J et al., 2015, Nat Commun 6:10221; Zhong T et al., 2016, Oncogene 36:2345-2354) with minor modifications. Briefly, gDNA was extracted from LX-2 cells in 24-well plates using Quick-gDNA MicroPrep (Zymo Research Corporation, Irvine, Calif.; D3021). For bisulfite treatment using EZ DNA Methylation-Gold Kit (Zymo, D5006), 90-500 ng of gDNA was used per column and 20-40 μl of elution buffer was used to elute DNA from each column. qPCR was performed in a 15 μl reaction containing 5 μl of eluted DNA using iQSYBRGreen (Bio-Rad, Hercules, Calif.; 1708880) in a Bio-Rad iCycler. PCR was conducted by initial denaturation at 95° C. for 5 min, followed by 40 cycles of 30 sec at 95° C., 30 sec at 60° C., and 30 sec at 72° C. Two sets of PCR primers were designed: one for unmethylated and one for methylated DNA sequences. The PCR primers for methylated DNA were used at a final concentration of 0.6 μM in each PCR reaction. The relative levels of methylated versus unmethylated DNA sequences are presented.
These experiments were performed as previously described (Zhou J et al., 2015, Nat Commun 6:10221) with minor modifications. Briefly, experiments were performed in a 10-cm plate scale using Chromatin Prep Module Kit (Thermo, catalog number 26158) according to the manufacturer's instructions. Agarose beads were used to pre-bind overnight with antibodies against TET3 (Millipore Sigma, ABE290), H3K4me3 (Cell signaling, C42D8) and H3K27me3 (Cell signaling, C36B11). Preimmune IgG was used as a negative control. LX-2 cells were cross-linked with 1% formaldehyde at RT for 10 min and the reaction was stopped by 1× glycine. ChIPs were carried out overnight at 4° C. Primers (Table 1) for the specific promoter regions of TGFB1, TSP1, and TGFBR2 were used to amplify input and ChIP-purified DNA. The relative enrichments of the indicated DNA regions were calculated using the Percent Input Method according to the manufacturer's instructions and were normalized to % input. Data are presented after normalization against background IgG signals.

siTET3: TET3-specific siRNA (human), Ambion 4392420/s47239 (sense CAGCAACUCCUAGAACUGATT; antisense UCAGUUCUAGGAGUUGCUGGA; chemistry not given here)
binding of TET3 to MED12, TGFBR2 and TSP1 promoters (ChIP-qPCR) ([1]; UtLM cells, 48 h): significantly reduced | H3K4me3 association with promoters ([1]; UtLM cells): significantly decreased H3K4me3 | H3K27me3 association with promoters ([1]; UtLM cells): increased H3K27me3 | decrease of the ratios of H3K4me3/H3K27me3 ([1]; UtLM cells): 5-8 fold | methylation of CpGs within the CTRRs of MED12, TGFBR2 and TSP1 promoters ([1]; ht-UtLM genome-wide profiling, confirmed in UtLM by QMSP, 48 h): increased methylation of the CpGs within the CTRRs | H3K4me3 association with promoters [2]: significantly decreased H3K4me3 | H3K27me3 association with promoters [2]: increased H3K27me3 | binding of TET3 to TGFB1, TSP1 and TGFBR2 promoters (ChIP-qPCR) [2]: significantly reduced | methylation in the CTRRs of TGFB1, TSP1 and TGFBR2 (QMSP) [2]: increase in methylation in the CTRRs | ratios of H3K4me3/H3K27me3 [2]: decreased significantly
